The test relates to GAS. The conditions noted are these: tested with GAS.

≈ marks a conversion by molar mass, not a printed value.

In the case of `CC[C@H](C)[C@H](NC(=O)[C@H](CCCCN)NC(=O)[C@H](CCC(=O)O)NC(=O)[C@H](CCCCN)NC(=O)[C@H](CO)NC(=O)[C@H](CCCCN)NC(=O)[C@H](CCCNC(=N)N)NC(=O)[C@H](Cc1ccccc1)NC(=O)[C@H](Cc1ccccc1)NC(=O)[C@H](CC(=O)O)NC(=O)CNC(=O)[C@H](CC(C)C)NC(=O)[C@@H](N)CC(C)C)C(=O)NCC(=O)N[C@@H](CCCCN)C(=O)N[C@@H](CCC(=O)O)C(=O)N[C@@H](Cc1ccccc1)C(=O)N[C@@H](CCCCN)C(=O)N[C@@H](CCCNC(=N)N)C(=O)N[C@H](C(=O)N[C@H](C(=O)N[C@@H](CCC(N)=O)C(=O)N[C@@H](CCCNC(=N)N)C(=O)N[C@H](C(=O)N[C@@H](CCCCN)C(=O)N[C@@H](CC(=O)O)C(=O)N[C@@H](Cc1ccccc1)C(=O)N[C@@H](CC(C)C)C(=O)N[C@@H](CCCNC(=N)N)C(=O)N[C@@H](CC(N)=O)C(=O)N[C@@H](CC(C)C)C(=O)N[C@H](C(=O)N1CCC[C@H]1C(=O)N[C@@H](CCCNC(=N)N)C(=O)N[C@H](C(=O)N[C@@H](CCC(=O)O)C(=O)N[C@@H](CO)C(=O)O)[C@@H](C)O)C(C)C)[C@@H](C)CC)C(C)C)[C@@H](C)CC` [Synthetic LL-37 peptide], the MBC – broadly, the lowest tested concentration that kills the bacteria rather than only halting them – turned out to be 16 µM (≈ 71.9 µg/mL) and the MIC (usually the lowest concentration found to suppress growth) was 16 µM (≈ 71.9 µg/mL).

(Values after patent US12447188B2, “Compositions and methods for the antiseptic treatment of biofilms on mammalian tissue” (Avadim Health IP, Inc., priority 2019, dated 2025).)
